Reference: US6613352B2, “Low-rigidity liposomal formulation” (Universite de Montreal, priority 1999, dated 2003)

Tested on: Xanthomonas maltophilia
Experiment: In vitro bactericidal activity, viable bacterial counts in proteose peptone
Assay type: cell-based
Details: free tobramycin 3,12 μg/ml, entrapped tobramycin 3,08 μg/ml, MIC >5 μg/ml
Procedure: To culture tubes containing proteose peptone (29 ml) a minimal number of 10^8 CFU of bacteria in logarithmic phase (1 ml) and of one of the following preparations (100 μl) were added at time zero: free tobramycin, control liposomes or PBS. Experiments were done in triplicate. At times 1, 3, 6, and 16 hours following the addition of antibiotic or controls, 2 ml of samples were collected and serial 10-fold dilutions were made and spread in triplicate on proteose peptone agar plates for gram negative strains and on […] for S. aureus. CFU were counted after 24-hour and 48-hourS incubations at 37° C. under 5% CO2. Counts were expressed in log CFU per ml of culture media.

SMILES: NC[C@H]1O[C@H](O[C@H]2[C@H](O)[C@@H](O[C@H]3O[C@H](CO)[C@@H](O)[C@H](N)[C@H]3O)[C@H](N)C[C@@H]2N)[C@H](N)C[C@@H]1O [Free tobramycin, tobramycin]
- Viable bacterial counts (0 h): 3.7 × 10^10 cfu
- Viable bacterial counts (1 h): 3.00 × 10^12 cfu
- Viable bacterial counts (3 h): 8.20 × 10^14 cfu
- Viable bacterial counts (6 h): 7.80 × 10^16 cfu
